Results as given in patent US20100178279A1, “Beta-Glucan Enhances Hematopoietic Progenitor Cells Engraftment and Promotes Recovery from Chemotoxicity” (Cornell University, priority 2009, published 2010).
Values belong to the molecule of their own block, whether it stands above or below them.

Columns and labels:
B6D2F1 mice [1] = assay: Paclitaxel-induced leukopenic mouse model, serial complete blood counts; format: in vivo
Experimental: Certified Rodent Diet #5053 (Lab Diet) was used. […] Mice were weighed each day. […] Sacrifice was performed by the CO2 method. […]
To determine the dose of Ptx required for induction of acute hematotoxicity that also permitted spontaneous recovery, fractionated dosing at 10 to 30 mg/kg was given 3 times every other day to groups of mice. After doses greater than 15 mg/kg were found effective, we compared cumulative doses of 60 and 90 mg/kg to untreated mice (n=4 each group). Serial CBCs were obtained from each mouse. Variation was evaluated by one-way ANCOVA and within mouse correlation was included as the covariate. Pair-wise differences were evaluated by Tukey's posttest. Treatment group variation was assessed by two-way ANOVA over the interval followed by between-group comparisons using Bonferroni posttests.

B6D2F1 mice [2] = assay: Peripheral blood cell recovery (complete blood cell count) after Ptx treatment
Experimental: Mice: B6D2F1 mice female, 6-8 weeks old were purchased from Jackson Laboratory, and were maintained in a pathogen-free facility at Memorial Sloan-Kettering Cancer Center (MSKCC, New York, N.Y.) with access to fresh water and food ad libitum. Certified Rodent Diet #5053 (Lab Diet) was used. All animal experiments were approved by the MSKCC Animal Care Committee. Treatments: Ptx was intraperitoneally injected (i.p) at 30 mg/kg/day over […] with cumulative dose of 90-120 mg/kg to mice. Neupogen (G-CSF) was given i.v. at 80 microg/kg at 24 hrs after the last dose of Ptx. […] Mice were weighed each day. Blood was taken from the tail vein for complete blood cell (CBC) counts. Sacrifice was performed by the CO2 method.
Complete Blood Cell Count: Approximately 20 microL of blood was taken from the tail vein after warming, for assessment of CBC by automated differential analysis using the Hemavet instrument after instrument standardization.
Statistical Analysis: Data are presented as mean percentage ±SD or mean counts ±SD. To identify the appropriate dose of Ptx, ANCOVA was used to examine significance of variation in average cell counts or percentage of change from baseline across all days for the cell type of interest in a treatment group and possible within-mouse correlation was adjusted by including mouse ID as a covariate. If overall significance by ANCOVA was shown, Tukey's method was used to determine between-day significance. To assess significance of variation across dose groups (including untreated) over the treatment interval, two-way ANOVA was used and then Bonferroni method was used to adjust for between-group multiple comparisons. In the studies of blood cell recovery, the decrease in cell count was calculated as compared to the corresponding baseline during the treatment for each mouse. The averages of the group decreases across different treatment groups were compared using two-way ANOVA to determine significance. Two sample t-tests were used to compare the difference in average percentage change at a given time point between any two treatment groups. Tukey's or Bonferroni method was used to adjust p-values for multiple comparisons where appropriate. The analyses were carried out using GraphPad Prism software version 5.01. Additional information is provided in the text.
30 mg/kg/day Ptx was given over 3 consecutive days (90 mg/kg cumulative dose) to each group. […] The Ptx+G-CSF group received one dose of intravenous G-CSF (80 ug/kg), 24 hrs after the last Ptx dose. Changes in absolute numbers of leukocytes (white blood cell count) from baseline were evaluated from post-day 1 to post-day 8 after chemotherapy. For each mouse, percent change in counts from baseline was calculated. Change from baseline across days within a treatment group was assessed by ANCOVA and within-mouse correlation was included as appropriate. Paired t-tests were used to compare any two time-points. Differences among treatment groups across the experimental period were assessed by two-way

[3] = test system: Gr-1+ granulocytes/monocytes; assay: Flow cytometric oxidative burst (ROS) assay on peripheral blood ex vivo after Ptx; format: in vivo, mouse
Experimental: Flow Cytometric Oxidative Burst Assay: Peripheral blood was obtained by retro orbital bleeding; about 400 microL blood were collected into heparinized tubes. The respiratory burst assay was performed as described with modifications. Briefly, 100 microL blood aliquots were added to each tube, wash buffer or stimuli (opsonized E. coli, fMLP (N-formylmethionyl-leucyl-phenylalanine) were added at 20 microL. Tubes were incubated in a water bath at 37° C. for 10 mins, then 20 microL of dihydrorhodamine (DHR-123) was added and tubes were vortexed, and then incubated for another 10 mins. Red blood cells were lysed and removed after washing once. R-PE conjugated rat anti-mouse Ly-6G and Ly-6C (Gr-1, BD Biosciences) antibody was added in the presence of Mouse BD Fc Block (purified anti-mouse CD16/CD32 monoclonal antibody, 2.4G2, BD Biosciences) at 1 μg/million cells, and incubated at room temperature in the dark for 15 mins. Cells were washed; supernatants removed and 200 μL of DNA staining solution was added. The samples were analyzed by flow cytometer (FACSCalibur) using CellQuest. The initial gate was set with Gr-1 to identify granulocytes/monocytes; the percentage of responding cells was then analyzed with FlowJo software.
After brief exposure of whole blood to opsonized E. coli and the chemotactic peptide N-formyl-Met-Leu-Phe (fMLP) ex vivo, fluorescence of ROS positive cells was detected by the oxidation of the dihydrorhodamine substrate. Blood samples were collected from each group 4 days after the last dose of Ptx and again on post-day 11. […] Post-day 4 was 3 days after G-CSF injection for the Ptx+G-CSF group. The ROS responses of normal, untreated mice were also studied.

[4] = Ptx 90 mg/kg, MBG 6 mg/kg/day oral or G-CSF 80 ug/kg i.v. once

- Leukocyte numbers compared to untreated mice (B6D2F1 mice [1]; cumulative Ptx dose 60 mg/kg): fewer leukocytes
- Lymphocyte numbers compared to the untreated group (B6D2F1 mice [1]; cumulative Ptx dose 90 mg/kg): lower over days 3, 4, and 5
- Lymphocytes compared to baseline (B6D2F1 mice [1]; cumulative Ptx dose 90 mg/kg): lower on day 8 compared to baseline
- Neutrophils compared to the untreated group (B6D2F1 mice [1]; cumulative Ptx dose 90 mg/kg (higher dose)): more reduced
- Duration of suppression of peripheral blood white blood cell counts below baseline levels (B6D2F1 mice [2]; mouse, in vivo): more than 8 days
- Monocyte counts below baseline at lowest point (B6D2F1 mice [2]; mouse, in vivo): 77.6±13%
Molecule: CC(=O)O[C@H]1C(=O)[C@@]2(C)[C@H]([C@H](OC(=O)c3ccccc3)[C@]3(O)C[C@H](OC(=O)[C@H](O)[C@@H](NC(=O)c4ccccc4)c4ccccc4)C(C)=C1C3(C)C)[C@]1(OC(C)=O)CO[C@@H]1C[C@@H]2O [Ptx, Paclitaxel]
- Neutrophil counts across all days (B6D2F1 mice [1]; cumulative Ptx dose 60 mg/kg, ANCOVA, no pair-wise comparisons significant): overall drop in neutrophil counts across all days was significant
- Leukocyte numbers compared to untreated mice (B6D2F1 mice [1]; cumulative Ptx dose 90 mg/kg): lower leukocyte numbers on days 3, 4, and 5
- Neutrophil counts compared to baseline (B6D2F1 mice [1]; cumulative Ptx dose 90 mg/kg): counts were significantly lower on days 4 and 5 compared to baseline
- Changes in leukocyte numbers within group (B6D2F1 mice [1]; cumulative Ptx dose 90 mg/kg, one-way ANCOVA): produced significant changes in leukocyte numbers
- Fractionated Ptx dose found effective for induction of acute hematotoxicity (B6D2F1 mice [1]; given 3 times every other day): greater than 15 mg/kg
- Leukocyte levels by post-day 5 compared to earlier post-days (B6D2F1 mice [2]; [4]): Counts improved by post-day 5 and 8 compared to post-day 1
- Lymphocyte recovery time course relative to baseline (B6D2F1 mice [2]; [4]): baseline levels were not achieved, even by post-day 8
- Neutrophil recovery time course (B6D2F1 mice [2]; [4]): Baseline levels were achieved by post-day 8
- Decrease in neutrophil level on post-day 5, between groups (B6D2F1 mice [2]; early recovery period): greater
- Unstimulated ROS production on post-day 11 compared to post-day 4 ([3]; mouse, in vivo): unchanged
- ROS response to E. coli on post-day 11 compared to post-day 4 ([3]; p<0.0001): increased
- ROS response to fMLP on post-day 11 compared to post-day 4 ([3]; p<0.0001): decreased
- ROS response to E. coli compared to untreated mice ([3]; post-day 4): lower compared to untreated mice

B1: G-CSF: Neupogen (G-CSF) from Amgen; recombinant human G-CSF (protein, UniProt P09919 31-207, looked up)
Granulocyte …: TPLGPASSLPQSFLLKCLEQVRKIQGDGAALQEKLVSECATYKLCHPEELVLLGHSLGIPWAPLSSCPSQALQLAGCLSQLHSGLFLYQGLLQALEGISPELGPTLDTLQLDVADFATTIWQQMEELGMAPALQPTQGAMPAFASAFQRRAGGVLVASHLQSFLEVSYRVLRHLAQP
modifications: filgrastim, N-terminal methionine
- Decline in leukocytes on post-day 2 (B6D2F1 mice [2]; Ptx 90 mg/kg, 24 hrs after G-CSF injection): not observed
- Effect on Ptx-induced increase of platelet numbers (B6D2F1 mice [2]; mouse, in vivo): also not affected
